According to publication PMC6934184, “Selective DNA-PKcs inhibition extends the therapeutic index of localized radiotherapy and chemotherapy” (The Journal of Clinical Investigation, 2019):

Target: T1, PIM1 (Homo sapiens, UniProt P11309)
T1 construct: purchased Thermo Fisher Scientific (Life Technologies) SelectScreen
Assay: SelectScreen Z'LYTE
Type: biochemical
Method in brief: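 SelectScreen broad panel; activity (Z'LYTE, Adapta) plus binding formats. ATP: Km app for CSF1R Z'LYTE; 10 for CAMK1 Adapta. Readout = % per kinase.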

T1 sequence (P11309 whole entry): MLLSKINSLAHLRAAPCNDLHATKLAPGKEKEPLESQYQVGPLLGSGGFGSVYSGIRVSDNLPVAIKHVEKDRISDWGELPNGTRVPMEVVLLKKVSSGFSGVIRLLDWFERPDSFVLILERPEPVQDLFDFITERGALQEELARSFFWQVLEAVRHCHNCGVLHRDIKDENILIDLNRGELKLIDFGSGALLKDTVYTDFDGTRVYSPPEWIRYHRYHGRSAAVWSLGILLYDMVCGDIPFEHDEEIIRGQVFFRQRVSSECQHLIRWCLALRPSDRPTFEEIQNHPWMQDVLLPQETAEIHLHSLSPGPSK

## CN(C(=O)CN1CCOCC1)c1ccc2sc3c(-c4cccc5c(=O)cc(N6CC7CCC(C6)O7)oc45)cccc3c2c1 [NU5455]
  inhibition at 1 µM: -1%
